For one test, the system named is PSA. The experiment in a line: Screening SSIA by homogeneous PSA immunoassay (anti-PSA-AK1 + anti-PSA-HRP). In kind it is biochemical, human. On the procedure: This example presents one method used for testing of candidate compounds for functionality as SSIA in assays of the present disclosure. Testing was conducted in a model screening immunoassay of the protein PSA. Tests were run using a 96-well microtiter plate format. A solution containing 30 μL of mouse anti-PSA-AK1 (66 ng), 30 μL of mouse anti-PSA-HRP conjugate (7.8 ng), 36 μL of human female serum, and 24 μL of PSA calibrator were pipetted into each well. The plate was incubated at 37° C. for 10 minutes. A 5 μL aliquot of the test compound (various concentrations) was added to each well. Chemiluminescence was triggered by the addition of 100 μL of a solution of a trigger solution whose composition is listed below. The chemiluminescent flash was integrated for 5 seconds after the addition of the trigger solution using a Luminoskan Asent® plate luminometer, (Thermo Fischer Scientific, Inc., Waltham, Mass.).
It is desirable that the improvement factor be at least 2 (S5/S0≧ about 20-30) and more desirable that improvement factor be at least 5 (S5/S0≧ about 50), yet more desirable that S5/S0 be ≧100 in the present screen.

The test system of a further test is biotinylated HRP. The experiment in a line: Model system for selection of SSIA (AK1/streptavidin BSA microparticles + biotinylated HRP). Conditions: SSIA 100 μM final. The class given is biochemical, horseradish. In outline: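 Streptavidin/AK1/biotin-BSA M280 microparticles mixed with candidate SSIA (100 μM final) and Btn-HRP at 0, 1, 10, 100 or 250 ng/mL, with unlabeled HRP to 500 ng/mL total HRP. After 30 min at 37° C, trigger solution was added and light intensity recorded on a modified DxI analyzer.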

Another test has as its system Rabbit anti cAMP. From the text: There are provided homogeneous immunoassays of an analyte utilizing a chemiluminescent-labeled capture antibody in combination with labeled analyte in a competitive immunoassay reaction. The example analyte cyclic-AMP (“cAMP”) is conjugated with HRP to provide a cAMP-HRP reagent, which competes for analyte cAMP at the capture antibody (“Capture Ab”) which is conjugated with AK5 to form a capture antibody-AK5 complex. […] Analyte (cAMP) which is not conjugated with HRP competes for the […], and upon addition of trigger solution the resulting capture antibody-AK5-cAMP complex provides no chemiluminescence (i.e., “No Light”). Accordingly, analyte cAMP competes for capture antibody-AK5 complex and thereby suppresses signal due to the capture antibody-AK1-cAMP-HRP complex.
Rabbit anti cAMP (IMMUNOTECH, Marseille) 0.1 mg (20.3 uL from 4.93 mg/mL stock) was added to 162 uL of 0.1 M sodium borate pH 8.25 buffer in 1.7 mL centrifuge tube. 17.6 ug of AK5 (17.6 ul from 1 mg/mL stock of DMF) was added. After quick vortex mixing tube was placed on a rotating shaker for 1 hour at room temperature. Reaction was quenched by adding 1.2 uL of L-lysine from 3 mg/mL stock. Reaction mixture was diluted (1:1) in 0.4% BSA and PBS and stored at 4 C. cAMP-HRP was prepared according to the literature. […] A 30 nM stock of cAMP was prepared in PBS and further diluted in PBS to make sample calibrators for the assay.
The competitive immunoassay protocol was as follows. AK5 labeled monoclonal Rabbit anti cAMP (0.275 ug/mL) (3 uL), HRP labeled cAMP (0.09375 ug/mL) (3 ul) and cAMP calibrators (4 ul) were added into a white polystyrene 384 low volume plate. Conjugate solutions were 0.2% in BSA. After incubation of 30 minutes at room temperature, 1 ul of 2-aminophenol (0.6875 mM) was added followed by a trigger solution (10 ul). The trigger solution contained 25 mM Tris pH 8, 8 mM p-hydroxycinnamic acid, 1 mM EDTA, 0.2% Tween-20 and 0.1 M ureaperoxide. Light intensity was measured (Spectromax) for one second immediately upon injection of trigger. Reactants were not exposed to light during incubation and were not shaken.

The mark [1] stands for this setting: test compound final conc. […] ([…]), S5 = 129 ng PSA/mL vs zero PSA.
Where [2] appears, read: test compound final conc. 0.244 mM (244 uM).

The structures appear in SMILES notation. Like-named read-outs stand apart in the source and are kept apart here.

In general, IC50 refers to the concentration needed to halve the response being measured.

Take `Cc1cc(CO)c(O)c(CO)c1`: the S5/S0 in the test on PSA (setting [1]) was 23.

For `COc1cc(C(C)(C)C)c(O)c(C(C)(C)C)c1`, the S5/S0 with PSA (setting [1]) stood at 19.

Turning to `Oc1ccc([C@@H]2Oc3cc(O)c(O)cc3C[C@@H]2O)cc1O`, the S5/S0 in the test on PSA (setting [1]) was found to be 323.

On to `O=c1cc(O)c2ccccc2o1`, for which the S5/S0 in the test with PSA (setting [1]) was determined as 17.

Turning to `O=c1ccc2cc(O)c(O)cc2o1`, the S5/S0 with PSA (setting [1]) is 105.

Take `O=c1c(O)c(-c2ccccc2)oc2ccccc12`: the S5/S0 in the test with PSA (setting [1]) came out at 13.

`Nc1ncccc1O`: in the test with PSA (setting [1]), the S5/S0 was 32.

For the compound `COc1ccccc1N`, in the test with PSA (setting [1]), the S5/S0 was determined as 7.

In the case of `COC1=C(O)C(=O)O[C@@H]1[C@@H](O)CO`, the S5/S0 with PSA (setting [1]) was found to be 16.

On to `O=C1O[C@H]([C@@H](O)CO)C(=O)C1=O`, for which the S5/S0 with PSA (setting [1]) amounted to 26.

Regarding `O=c1c(O)c(-c2ccccc2)oc2cc(O)ccc12`, in the test with PSA (setting [1]), the S5/S0 is 14.

In the case of `O=c1c(O)c(-c2ccccc2)oc2ccc(O)cc12`, in the test with PSA (setting [1]), the S5/S0 is recorded as 9.

Take `Nc1c(O)cc(S(=O)(=O)O)c2ccccc12`: the S5/S0 in the test with PSA (setting [1]) turned out to be 65.

Regarding `O=C(O)c1cc(O)c2ccccc2n1`, the S5/S0 with PSA (setting [1]) is 6.

Turning to `c1ccc2c(c1)Cc1ccccc1O2`, the S5/S0 in the test on PSA (setting [1]) worked out at 4.

In the case of `O=c1c2ccccc2[nH]c2ccccc12`, in the test with PSA (setting [1]), the S5/S0 came to 14.

With `Nc1ccccc1B(O)O`, the S5/S0 in the test with PSA (setting [1]) was 108.

As for `Oc1cccnc1O`, in the test on PSA (setting [1]), the S5/S0 was found to be 41.

`O=C(O)/C(O)=C(/O)C(=O)O`: in the test on PSA (setting [1]), the S5/S0 is given as 30.

Turning to `O=C(O)c1cccc(O)c1O`, the S5/S0 in the test with PSA (setting [1]) turned out to be 22.

Regarding `c1ccc2c(c1)Cc1ccccc1S2`, the S5/S0 in the test on PSA (setting [1]) is reported as 9.

For the compound `O=C(O)C1c2ccccc2Oc2ccccc21`, the S5/S0 in the test with PSA (setting [1]) is listed as 7.

Consider `O=C(c1ccccc1)C1c2ccccc2Nc2ccccc21`, for which the S5/S0 with PSA (setting [1]) is on record as 9.

Turning to `O[C@@H](CS)[C@@H](O)CS` [DTT], the S5/S0 with PSA (test compound final conc. 72 uM) was found to be 20.

Regarding `OCCO` [Ethylene glycol], the S5/S0 in the test on PSA is recorded as 14.

In the case of `N[C@@H](CCC(=O)N[C@@H](CS)C(=O)NCC(=O)O)C(=O)O` [Glutathione], the “light intensity, BTN-HRP0” value in the test with biotinylated HRP (Btn-HRP 0 ng/mL, total HRP 500 ng/mL) is listed as 26,977. Further, the S1/S0 in the test on biotinylated HRP (Btn-HRP 1 ng/mL vs 0) turned out to be 2.1. Moreover, the “light intensity, BTN-HRP1” value in the test on biotinylated HRP (Btn-HRP 1 ng/mL, total HRP 500 ng/mL) was 55,719. For the same compound, the S2/S0 in the test with biotinylated HRP (Btn-HRP 10 ng/mL vs 0) is recorded as 92. Also, the “light intensity, BTN-HRP10” value in the test on biotinylated HRP (Btn-HRP 10 ng/mL, total HRP 500 ng/mL) is 2,480,764. In addition, the S3/S0 in the test with biotinylated HRP (Btn-HRP 100 ng/mL vs 0) is given as 323.7. For the same compound, the “light intensity, BTN-HRP100” value with biotinylated HRP (Btn-HRP 100 ng/mL, total HRP 500 ng/mL) is 8,733,068. In addition, the S4/S0 in the test with biotinylated HRP (Btn-HRP 250 ng/mL vs 0) was 369.4. Moreover, in the test on biotinylated HRP (Btn-HRP 250 ng/mL, total HRP 500 ng/mL), the “light intensity, BTN-HRP250” value is reported as 9,965,235. Moreover, in the test with biotinylated HRP, the “effectiveness as SSIA in the model system” value is “insuffient effectiveness”. In the test with PSA (setting [1]), the S5/S0 was 77.

Regarding `N[C@@H](CS)C(=O)O` [L-Cysteine], the S5/S0 with PSA (setting [1]) is listed as 22.

Regarding `NN` [NH2NH2], the S5/S0 in the test on PSA (setting [2]) is listed as 15.

Consider `O=S([O-])[O-].[Na+].[Na+]` [Na2SO3], for which, in the test on PSA (test compound final conc. 15 uM), the S5/S0 came out at 59.

In the case of `[N-]=[N+]=[N-].[Na+]` [NaN3], the S5/S0 in the test with PSA (test compound final conc. 34 uM) is on record as 19.

`Cc1cc(-c2cc(C)c(N)c(C)c2)cc(C)c1N` [TMB]: the S5/S0 with PSA (test compound final conc. 0.061 mM (61 uM)) came out at 20.

In the case of `O=C1O[C@H]([C@@H](O)CO)C([O-])=C1O.[Na+]` [ascorbate sodium salt (ascorbate anion), ascorbate sodium salt], the S5/S0 in the test with PSA (setting [1]) was 495.

Turning to `Nc1ncnc2c1ncn2[C@@H]1O[C@@H]2COP(=O)(O)O[C@H]2[C@H]1O` [cAMP, cyclic-AMP], the “Average (light intensity)” value with Rabbit anti cAMP (cAMP 0.412 nM) was determined as 83377; with Rabbit anti cAMP (cAMP 3.7 nM) it was 31156; in the test on Rabbit anti cAMP (cAMP 33.3 nM), 943; in the test with Rabbit anti cAMP (cAMP 100 nM), 315; with Rabbit anti cAMP (cAMP 1000 nM) it was 173; with Rabbit anti cAMP (cAMP 10000 nM) it was 167. For the same compound, the “Signal Suppression” value in the test on Rabbit anti cAMP (cAMP 0.412 nM) was 9%; in the test on Rabbit anti cAMP (cAMP 3.7 nM) it was 66%; in the test on Rabbit anti cAMP (cAMP 33.3 nM), 99%; in the test with Rabbit anti cAMP (cAMP 100 nM) it was 100%; with Rabbit anti cAMP (cAMP 1000 nM), 100%; in the test on Rabbit anti cAMP (cAMP 10000 nM), 100%. In addition, in the test on Rabbit anti cAMP (read-out: IC50 for cAMP, competition with cAMP-HRP at AK5-labeled antibody, 2-aminophenol as SSIA), the IC50 stood at 2.6 nM.

Regarding `c1ccc2c(c1)Nc1ccccc1O2` [drawing 87], the S5/S0 in the test on PSA (setting [1]) was determined as 605.

In the case of `O=C1O[C@H]([C@@H](O)CO)C(O)=C1O` [drawing 89], the S5/S0 in the test with PSA (setting [1]) is reported as 423.

Turning to `Nc1ccccc1O` [drawing 97], the S5/S0 with PSA (setting [1]) is reported as 649.

As to `Oc1ccc(Cl)cc1O` [drawing 108], the S5/S0 in the test on PSA (setting [2]) came out at 409.

Consider `Nc1ccc(C(=O)O)cc1O` [drawing 110], for which the S5/S0 in the test on PSA (setting [1]) is recorded as 153.

`O=C1O[C@H]([C@@H](O)CO)C(O)=C1O` [drawing 128]: the S5/S0 in the test with PSA (setting [1]) came to 10.3.

These data come from US9029092B2, “Solution phase homogeneous assays” (Beckman Coulter, Inc., priority 2009, dated 2015).
